≈ marks a conversion by molar mass, not a printed value.

Data set [1] in a line: Aqueous solubility of the compound at pH 5. Format: physicochemical.
Data set [2] deals with T1, Vasopressin V1b receptor (Homo sapiens, UniProt P47901).
T1 sequence (P47901 whole entry): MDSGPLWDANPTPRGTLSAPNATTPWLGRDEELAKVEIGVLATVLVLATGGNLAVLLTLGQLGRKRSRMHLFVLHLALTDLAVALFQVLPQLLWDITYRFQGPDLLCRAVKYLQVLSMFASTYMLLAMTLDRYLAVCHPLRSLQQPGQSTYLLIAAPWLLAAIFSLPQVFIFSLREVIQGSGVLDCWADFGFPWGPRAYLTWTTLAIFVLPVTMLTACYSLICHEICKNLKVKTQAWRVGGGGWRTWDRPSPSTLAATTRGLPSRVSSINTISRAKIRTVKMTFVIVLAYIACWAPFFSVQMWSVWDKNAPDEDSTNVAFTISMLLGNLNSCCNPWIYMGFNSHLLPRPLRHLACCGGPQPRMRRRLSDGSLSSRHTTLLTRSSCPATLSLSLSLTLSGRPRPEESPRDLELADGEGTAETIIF
The data set is described as follows: Displacement of [3H]vasopressin from human vasopressin V1b receptor expressed in CHO cells. In kind it is cell-based. (In a radioligand displacement assay an active substance lowers the binding of a labelled ligand.)

Data set [3] deals with T2, Oxytocin receptor (Rattus norvegicus, UniProt P70536).
T2 sequence (P70536 whole entry): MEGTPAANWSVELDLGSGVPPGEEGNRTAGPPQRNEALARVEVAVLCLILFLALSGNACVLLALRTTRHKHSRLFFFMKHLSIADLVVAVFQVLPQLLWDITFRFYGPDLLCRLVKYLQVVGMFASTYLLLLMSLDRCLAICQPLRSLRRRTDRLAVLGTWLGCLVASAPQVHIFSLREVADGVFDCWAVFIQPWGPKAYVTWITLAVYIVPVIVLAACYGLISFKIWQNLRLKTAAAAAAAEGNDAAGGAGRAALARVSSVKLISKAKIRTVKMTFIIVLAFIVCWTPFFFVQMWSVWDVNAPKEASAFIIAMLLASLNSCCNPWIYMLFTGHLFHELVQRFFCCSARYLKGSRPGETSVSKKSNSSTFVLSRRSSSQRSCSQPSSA
Kind of data set: Displacement of [3H]-oxytocin from rat oxytocin receptor expressed in HEK293-EBNA cells. Format: cell-based.

Data set [4] addresses T3, Vasopressin V1a receptor (Homo sapiens, UniProt P37288). The data set is described as follows: Displacement of [3H]vasopressin from human vasopressin V1a receptor expressed in CHO cells at 10 uM.
Target sequence in this assay (P37288 whole entry, looked up): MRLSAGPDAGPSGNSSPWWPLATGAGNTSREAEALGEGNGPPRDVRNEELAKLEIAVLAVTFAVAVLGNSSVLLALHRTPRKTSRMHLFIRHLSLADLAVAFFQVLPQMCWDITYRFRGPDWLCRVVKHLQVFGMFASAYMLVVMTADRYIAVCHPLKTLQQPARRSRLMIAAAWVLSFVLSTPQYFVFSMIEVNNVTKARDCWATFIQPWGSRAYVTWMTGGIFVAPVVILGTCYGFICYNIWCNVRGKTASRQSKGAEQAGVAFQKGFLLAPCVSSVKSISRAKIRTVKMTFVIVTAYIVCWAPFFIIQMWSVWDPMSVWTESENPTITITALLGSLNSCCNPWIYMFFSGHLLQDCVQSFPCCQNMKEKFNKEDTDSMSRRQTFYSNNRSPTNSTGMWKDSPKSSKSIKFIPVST
Data set [5] is described as follows: Half life in rat. As to conditions: in vivo. In kind it is ADME, organism-based.
A short description of data set [6]: Clearance in rat. In kind it is ADME, organism-based. As to conditions: in vivo.
The target of data set [7] is T3, Vasopressin V1a receptor. Kind of data set: Displacement of [3H]vasopressin from human vasopressin V1a receptor.
Target sequence in this assay (P37288 whole entry): as the sequence (P37288 whole entry, looked up) above
For data set [8], the target named is T1, Vasopressin V1b receptor. Kind of data set: Displacement of [3H]vasopressin from human vasopressin V1b receptor.
Data set [9] has as its target T4, Vasopressin V2 receptor (Homo sapiens, UniProt P30518). The data set is described as follows: Displacement of [3H]vasopressin from human vasopressin V2 receptor.
Data set [10] is filed under the species Homo sapiens. The data set is described as follows: Selectivity ratio of Ki for human oxytocin receptor Ki for human vasopressin V1a receptor.
The species entered for data set [11] is Homo sapiens. Kind of data set: Selectivity ratio of Ki for human oxytocin receptor Ki for human vasopressin V2 receptor.
For data set [12], the species on record is Homo sapiens. Kind of data set: Selectivity ratio of Ki for human oxytocin receptor Ki for human vasopressin V1b receptor.
Data set [13] addresses T5, Oxytocin receptor (Homo sapiens, UniProt P30559).
T5 sequence (P30559 whole entry): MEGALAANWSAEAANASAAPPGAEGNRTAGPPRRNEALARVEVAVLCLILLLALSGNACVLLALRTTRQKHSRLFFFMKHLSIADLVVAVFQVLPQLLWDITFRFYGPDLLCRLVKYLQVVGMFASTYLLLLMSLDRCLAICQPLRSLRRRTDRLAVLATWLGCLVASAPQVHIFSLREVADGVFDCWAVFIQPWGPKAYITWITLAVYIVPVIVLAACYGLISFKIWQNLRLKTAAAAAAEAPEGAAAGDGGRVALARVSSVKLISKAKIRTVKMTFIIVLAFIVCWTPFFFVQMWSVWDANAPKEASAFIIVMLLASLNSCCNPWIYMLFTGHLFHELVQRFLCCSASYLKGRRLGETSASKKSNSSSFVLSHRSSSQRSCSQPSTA
Kind of data set: Displacement of [3H]-oxytocin from oxytocin receptor in human uterus tissue. Format: tissue-based.

In data set [14] the test system is Rattus norvegicus. The data set is described as follows: Inhibition of oxytocin-induced uterine contraction in iv dosed rat. In kind it is functional.
Data set [15] is described as follows: Oral bioavailability in rat. Format: ADME, organism-based. The conditions noted are these: in vivo.
The target of data set [16] is T5, Oxytocin receptor. The data set is described as follows: Displacement of [3H]-oxytocin from human oxytocin receptor expressed in CHO cells. Format: cell-based.
The target of data set [17] is T4, Vasopressin V2 receptor. The data set is described as follows: Displacement of [3H]vasopressin from human vasopressin V2 receptor expressed in CHO cells. Format: cell-based.
The target in data set [18] is T2, Oxytocin receptor. The data set is described as follows: Antagonist activity at oxytocin receptor in rat uterine strips assessed as inhibition of oxytocin-induced contraction. In kind it is functional. The conditions noted are these: read-out: pA2 (converted).
For data set [19], the system named is Rattus norvegicus. Kind of data set: Inhibition of oxytocin-induced uterine contraction in po dosed rat. Format: functional.
A short description of data set [20]: Oral bioavailability in pregnant rat. As to conditions: female, in vivo. Format: ADME, organism-based.
The nature of data set [21]: Half life in pregnant rat. In kind it is ADME, organism-based. As to conditions: female, in vivo.
In data set [22] the target is Vasopressin V1a receptor (Rattus norvegicus, UniProt P30560). The data set is described as follows: Displacement of [3H]vasopressin from vasopressin V1a receptor in rat liver tissue.
Chain of Vasopressin V1a receptor (Rattus norvegicus, UniProt P30560) (P30560 whole entry): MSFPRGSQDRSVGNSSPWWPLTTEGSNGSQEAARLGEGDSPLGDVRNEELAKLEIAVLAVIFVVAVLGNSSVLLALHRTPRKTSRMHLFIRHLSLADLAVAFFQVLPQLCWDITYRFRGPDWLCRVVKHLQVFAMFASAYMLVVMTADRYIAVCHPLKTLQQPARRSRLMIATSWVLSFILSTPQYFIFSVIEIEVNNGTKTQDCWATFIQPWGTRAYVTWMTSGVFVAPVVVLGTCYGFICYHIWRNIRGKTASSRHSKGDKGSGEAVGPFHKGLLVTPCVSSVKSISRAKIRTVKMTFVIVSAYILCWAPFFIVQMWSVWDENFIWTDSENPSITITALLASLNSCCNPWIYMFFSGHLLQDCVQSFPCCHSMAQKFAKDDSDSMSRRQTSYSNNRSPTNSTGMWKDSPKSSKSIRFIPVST
Data set [23] concerns the target Vasopressin V2 receptor (Rattus norvegicus, UniProt Q00788). Kind of data set: Displacement of [3H]vasopressin from vasopressin V2 receptor in rat kidney tissue.
Data set [24] deals with Rattus norvegicus. Kind of data set: Inhibition of oxytocin-induced uterine contraction in iv dosed non-pregnant anaesthetized rat. Format: functional.
In data set [25] the test system is Rattus norvegicus. Kind of data set: Inhibition of oxytocin-induced uterine contraction in non-pregnant anaesthetized rat at 30 mg/kg, po. In kind it is functional.
The test system of data set [26] is Rattus norvegicus. Kind of data set: Inhibition of oxytocin-induced uterine contraction in long-term pregnant anaesthetized rat at 30 mg/kg, po. Format: functional. The conditions noted are these: read-out: INH.
Data set [27] deals with Rattus norvegicus. The data set is described as follows: Inhibition of oxytocin-induced uterine contraction in intraduodenally dosed rat. In kind it is functional.
Data set [28] is described as follows: Oral bioavailability in rhesus monkey. Format: ADME, organism-based, Macaca mulatta. As to conditions: in vivo.
Data set [29] concerns the target T2, Oxytocin receptor. Kind of data set: Displacement of [3H]-oxytocin from oxytocin receptor in rat uterus tissue. Format: tissue-based.
Data set [30] addresses T3, Vasopressin V1a receptor. Kind of data set: Displacement of [3H]vasopressin from vasopressin V1a receptor in human liver tissue.
Target sequence in this assay (P37288 whole entry): as the sequence (P37288 whole entry, looked up) above
The target of data set [31] is T4, Vasopressin V2 receptor. Kind of data set: Displacement of [3H]vasopressin from vasopressin V2 receptor in human kidney tissue.
Data set [32] can be described thus: Oral bioavailability in human. Format: ADME, organism-based. The conditions noted are these: in vivo.
Data set [33] can be described thus: Oral bioavailability in dog. Format: ADME, organism-based, Canis lupus familiaris. The conditions noted are these: in vivo.
The nature of data set [34]: Oral bioavailability in chimpanzee. Format: ADME, organism-based, Pan troglodytes. The conditions noted are these: in vivo.
Data set [35] can be described thus: Aqueous solubility of the compound at pH 5.2. Format: physicochemical. As to conditions: buffer.

T4 sequence (P30518 whole entry): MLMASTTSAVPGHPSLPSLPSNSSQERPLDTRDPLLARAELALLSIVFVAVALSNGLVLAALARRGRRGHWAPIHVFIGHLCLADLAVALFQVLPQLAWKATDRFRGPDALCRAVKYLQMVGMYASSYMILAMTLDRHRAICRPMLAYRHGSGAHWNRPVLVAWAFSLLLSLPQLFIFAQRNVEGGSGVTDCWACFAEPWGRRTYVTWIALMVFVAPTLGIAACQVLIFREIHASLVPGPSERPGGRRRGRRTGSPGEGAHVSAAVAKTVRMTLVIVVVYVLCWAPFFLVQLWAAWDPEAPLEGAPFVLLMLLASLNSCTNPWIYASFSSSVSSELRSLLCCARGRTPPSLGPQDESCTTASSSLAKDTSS
Chain of Vasopressin V2 receptor (Rattus norvegicus, UniProt Q00788) (Q00788 whole entry): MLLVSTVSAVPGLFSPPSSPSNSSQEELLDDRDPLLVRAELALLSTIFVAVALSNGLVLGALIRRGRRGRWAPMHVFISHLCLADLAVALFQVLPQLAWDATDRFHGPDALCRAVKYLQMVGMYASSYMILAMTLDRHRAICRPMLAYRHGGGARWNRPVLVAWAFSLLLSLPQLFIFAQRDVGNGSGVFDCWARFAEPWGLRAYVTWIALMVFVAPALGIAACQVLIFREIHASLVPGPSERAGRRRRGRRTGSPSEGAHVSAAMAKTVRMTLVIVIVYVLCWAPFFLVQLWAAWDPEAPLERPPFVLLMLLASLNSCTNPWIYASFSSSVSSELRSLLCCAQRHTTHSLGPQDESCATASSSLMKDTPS

In general, Ki refers to a measure of affinity in units of concentration, obtained from inhibition or displacement. As to `CCOc1ccc(S(=O)(=O)N(CC(=O)NN=C2C(=O)Nc3ccccc32)c2ccc(C)cc2)cc1`, in data set [1], the solubility is under 1 µg/mL. Further, the Ki in data set [2] was 2500 nM; in data set [3], 25 nM.

Usually inhibition stands for the relative decrease from the control value, in per cent. For `O=C(CN(c1ccccc1)S(=O)(=O)c1ccccc1)N/N=C1\C(=O)Nc2ccccc21`, the inhibition in [4] is under 50%.

As usually defined, the half-life is the time in which the quantity being followed falls by half. As a reminder, the clearance is the rate of elimination divided by the concentration. As for `COc1ccc(-n2c(C)nnc2-c2cnc(-c3ccc(F)cc3C)cn2)cn1`, the half-life in data set [5] was 1 h. Moreover, the solubility in data set [1] amounted to 6 µg/mL (≈ 15.9 µM). The molecule further gave a Ki in data set [2] of over 10000 nM. Moreover, the clearance in [6] came to 50 mL/min/kg.

Regarding `CC(C)C[C@@H]1C(=O)N[C@H](C2Cc3ccccc3C2)C(=O)N1[C@@H](C(=O)NC(C)C)c1ccc(F)cc1`, the Ki in data set [7] is over 6310 nM; in data set [8], over 6310 nM; in data set [9], 1260 nM. The Ratio Ki was over 1500 in data set [10], over 300 in [11] and over 1500 in [12].

As a reminder, the ED50 is the dose at which the effect has come halfway, by size or by number of responders. As a reminder, the bioavailability is dose-corrected exposure relative to a reference, in per cent. What is called IC50 is the concentration needed to halve the response being measured. For the molecule `CO/N=C1/C[C@@H](C(=O)NC[C@@H](O)c2ccccc2)N(C(=O)c2ccc(-c3ccccc3C)cc2)C1`, the Ki in data set [13] was 28 nM; in data set [17], over 10000 nM. Moreover, the ED50 was determined as 3.5 mg/kg in [14] (Rattus norvegicus, iv) and 89 mg/kg in data set [19]. In addition, the bioavailability in data set [15] and in [20] was 49% throughout. Besides, the results for the Ratio Ki in data set [10] and in data set [11] were 6 and 350, respectively. The molecule also returned a concentration for half-maximal inhibition (IC50) in data set [16] of 28 nM. The Kb in data set [18] was 15.8 nM. The half-life in [21] is 2.8 h.

As for `Cc1ccc(S(=O)(=O)N2CCC3(C=Cc4ccccc43)CC2)cc1`, the Ki in data set [13] was 1000 nM; in data set [22] it was 9800 nM; in data set [23], over 40000 nM.

Take `CC(C)C[C@@H]1C(=O)N[C@H](C2Cc3ccccc3C2)C(=O)N1[C@@H](C(=O)NC(C)C)c1ccc(F)cc1F`: the results for the inhibitory constant (Ki) in data set [7] and in [8] were 6310 nM and over 6310 nM, respectively.

`CN(C)CCCNC(=O)CCc1ccc(S(=O)(=O)N(CC(=O)N/N=C2\C(=O)Nc3ccccc32)c2ccc(Cl)cc2)cc1`: the Ratio Ki was 60 in [10], 580 in data set [11] and 23000 in data set [12]. In addition, the ED50 in data set [24] came out at 1.4 mg/kg. Further, the inhibition in vivo at 30 mg/kg in [25] and in data set [26] was 35% throughout. In data set [2], this molecule showed an inhibitory constant (Ki) of 377 nM.

`COc1cc(OC2CCN(C(C)=O)CC2)ccc1C(=O)N1CCC(N2C(=O)OCc3ccccc32)CC1`: the AD50 in data set [14] amounted to 0.55 mg/kg; in [27] it was 2.5 mg/kg. This molecule also had a bioavailability in data set [28] of 13%.

For the molecule `Cc1ccccc1N1CCN(S(=O)(=O)C[C@]23CC[C@H](C[C@@H]2NC(=O)[C@@H](N)CCS(C)(=O)=O)C3(C)C)CC1`, the Ki in data set [13] came to 13 nM; in data set [29], 3.6 nM; in [30], 180 nM; in [22], 110 nM; in [31], 590 nM; in data set [23], 200 nM. The AD50 came out at 0.35 mg/kg in data set [14] and 7 mg/kg in [27]. The bioavailability was found to be 35% in [15], 20% in data set [32], 25% in data set [33] and 21% in data set [34]. The Ratio Ki in data set [10] was determined as 14; in data set [11], 45. In addition, the solubility in data set [35] is 2.5 mg/kg.
